# Assays:
# [1] = tested on: corn; assay: Test E postemergence; format: in vivo, Zea mays
# Excerpt: (§1) Seeds of plant species selected from corn (Zea mays), soybean (Glycine max), velvetleaf (Abutilon theophrasti), lambsquarters (Chenopodium album), wild poinsettia (Euphorbia heterophylla), palmer pigweed (Amaranthus palmeri), waterhemp (common waterhemp, Amaranthus rudis), surinam grass (Brachiaria decumbens), large (Lg) crabgrass (Digitaria sanguinalis), Brazilian crabgrass (Digitaria horizontalis), fall panicum (Panicum dichotomiflorum), giant foxtail (Setaria faberii), green foxtail (Setaria viridis), goosegrass (Eleusine indica), johnsongrass (Sorghum halepense), ragweed (common ragweed, Ambrosia elatior), barnyardgrass (Echinochloa crus-galli), sandbur (southern sandbur, Cenchrus echinatus), arrowleaf sida (Sida rhombifolia), Italian ryegrass (Lolium multiflorum), dayflower (Virginia (VA) dayflower, Commelina virginica), field bindweed (Convolvulus arvensis), morningglory (Ipomoea coccinea), nightshade (eastern black nightshade, Solanum ptycanthum), kochia (Kochia scoparia), yellow nutsedge (Cyperus esculentus), cocklebur (common cocklebur, Xanthium strumarium), smartweed (ladysthumb smartweed, and hairy beggarticks (Bidens pilosa), were planted into a silt loam soil and treated preemergence with test chemicals formulated in a non-phytotoxic solvent mixture which included a surfactant.
# (§2) At the same time, plants from these crop and weed species and also horseweed (Canada horseweed, Conyza canadensis), waterhemp_RES1, (ALS & Triazine resistant common waterhemp, Amaranthus rudis), and waterhemp_RES2, (ALS & HPPD resistant common waterhemp, Amaranthus rudis) were planted in pots containing Redi-Earth® planting medium (Scotts Company, 14111 Scottslawn Road, Marysville, Ohio 43041) comprising spaghnum peat moss, vermiculite, wetting agent and starter nutrients were treated with postemergence applications of test chemicals formulated in the same manner. Plants ranged in height from 2 to 18 cm for postemergence treatments (1- to 4-leaf stage). Treated plants and controls were maintained in a greenhouse for 14 to 21 days, after which time all species were compared to controls and visually evaluated. Plant response ratings, summarized in Table E, are based on a scale of 0 to 100 where 0 is no effect and 100 is complete control. A dash (-) response means no test result.
# [2] = tested on: dayflower; assay: Test E postemergence; format: in vivo, Commelina virginica
# Summary of the method: (§3)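 Test chemicals formulated in a non-phytotoxic solvent mixture containing a surfactant were applied preemergence to seeds in silt loam soil or postemergence to plants at the 1- to 4-leaf stage in potting mix. After 14 to 21 days in a greenhouse, injury was visually rated against controls on a 0-100 scale (0 = no effect, 100 = complete control).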
# [3] = tested on: sedge, umbrella; assay: Test C flooded paddy test; format: in vivo, Cyperus difformis; details: Flood, scale 0 to 100 (0 no effect, 100 complete control), 13 to 15 days
# Summary of the method: (§4)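 In-water treatment: compound dosed into 3 cm flood over soil, water level unchanged throughout. Controls run alongside; visual assessment at day 13–15.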
# [4] = tested on: rice; assay: Test C flooded paddy test; format: in vivo, Oryza sativa; details: Flood, scale 0 to 100 (0 no effect, 100 complete control), 13 to 15 days
# Summary of the method: as §4
# [5] = tested on: soybean; assay: Test E postemergence; format: in vivo, Glycine max
# Summary of the method: as §3
# [6] = tested on: Italian ryegrass; assay: Test E postemergence; format: in vivo, Lolium multiflorum
# Excerpt: as §1, §2
# [7] = tested on: Brazilian crabgrass; assay: Test E postemergence; format: in vivo, Digitaria horizontalis
# Summary of the method: as §3
# [8] = Postemergence, 31 g ai/ha, scale 0 to 100
# [9] = Postemergence, 62 g ai/ha, scale 0 to 100
# [10] = Postemergence, 125 g ai/ha, scale 0 to 100
# [11] = postemergence, 8 g ai/ha, scale 0 to 100, 0 no effect, 100 complete control
# [12] = postemergence, 16 g ai/ha, scale 0 to 100, 0 no effect, 100 complete control
smiles,measurement,setting,value
FC(F)(F)c1cnn(-c2c(Br)cccc2Oc2ncc(Cl)cn2)c1 [Compound 191],"Plant response rating, Corn",[1]; [8],10
same,"Plant response rating, Corn",[1]; [9],10
same,"Plant response rating, Corn",[1]; [10],15
same,"Plant response rating, Corn",[1]; [11],0
same,"Plant response rating, Corn",[1]; [12],0
same,"Plant response rating, Dayflower, VA",[2]; [8],5
same,"Plant response rating, Dayflower, VA",[2]; [9],10
same,"Plant response rating, Dayflower, VA",[2]; [10],10
same,"Plant response rating, Dayflower, VA",[2]; [11],0
same,"Plant response rating, Dayflower, VA",[2]; [12],0
same,"Plant response rating, Sedge, Umbrella",[3]; 31 g ai/ha,40
same,"Plant response rating, Sedge, Umbrella",[3]; 62 g ai/ha,60
same,"Plant response rating, Sedge, Umbrella",[3]; 125 g ai/ha,85
same,"Plant response rating, Sedge, Umbrella",[3]; 250 g ai/ha,98
same,"Plant response rating, Rice",[4]; 31 g ai/ha,0
same,"Plant response rating, Rice",[4]; 62 g ai/ha,0
same,"Plant response rating, Rice",[4]; 125 g ai/ha,0
same,"Plant response rating, Rice",[4]; 250 g ai/ha,0
same,"Plant response rating, Soybean",[5]; [8],60
same,"Plant response rating, Soybean",[5]; [9],50
same,"Plant response rating, Soybean",[5]; [10],95
same,"Plant response rating, Soybean",[5]; [11],20
same,"Plant response rating, Soybean",[5]; [12],30
same,"Plant response rating, Ryegrass, Italian",[6]; [8],0
same,"Plant response rating, Ryegrass, Italian",[6]; [9],0
same,"Plant response rating, Ryegrass, Italian",[6]; [10],0
same,"Plant response rating, Ryegrass, Italian",[6]; [11],0
same,"Plant response rating, Ryegrass, Italian",[6]; [12],0
same,"Plant response rating, Crabgrass, Brazil",[7]; [8],10
same,"Plant response rating, Crabgrass, Brazil",[7]; [9],10
same,"Plant response rating, Crabgrass, Brazil",[7]; [10],20
same,"Plant response rating, Crabgrass, Brazil",[7]; [11],10
same,"Plant response rating, Crabgrass, Brazil",[7]; [12],10
Clc1cnc(Oc2ccccc2-n2cc(Br)nn2)nc1 [Compound 223],"Plant response rating, Corn",[1]; [8],0
same,"Plant response rating, Corn",[1]; [9],0
same,"Plant response rating, Corn",[1]; [10],5
same,"Plant response rating, Corn",[1]; [11],0
same,"Plant response rating, Corn",[1]; [12],0
same,"Plant response rating, Dayflower, VA",[2]; [8],25
same,"Plant response rating, Dayflower, VA",[2]; [9],55
same,"Plant response rating, Dayflower, VA",[2]; [10],65
same,"Plant response rating, Dayflower, VA",[2]; [11],0
same,"Plant response rating, Dayflower, VA",[2]; [12],0
same,"Plant response rating, Soybean",[5]; [8],95
same,"Plant response rating, Soybean",[5]; [9],98
same,"Plant response rating, Soybean",[5]; [10],98
same,"Plant response rating, Soybean",[5]; [11],30
same,"Plant response rating, Soybean",[5]; [12],60
same,"Plant response rating, Ryegrass, Italian",[6]; [8],0
same,"Plant response rating, Ryegrass, Italian",[6]; [9],0
same,"Plant response rating, Ryegrass, Italian",[6]; [10],0
same,"Plant response rating, Ryegrass, Italian",[6]; [11],0
same,"Plant response rating, Ryegrass, Italian",[6]; [12],0
same,"Plant response rating, Crabgrass, Brazil",[7]; [8],10
same,"Plant response rating, Crabgrass, Brazil",[7]; [9],10
same,"Plant response rating, Crabgrass, Brazil",[7]; [10],20
same,"Plant response rating, Crabgrass, Brazil",[7]; [11],0
same,"Plant response rating, Crabgrass, Brazil",[7]; [12],0
"N#Cc1cccc(Oc2ncc(Cl)cn2)c1-n1cc(OCC(F)(F)F)cn1 [Compound 274, 3-[(5-chloro-2-pyrimidinyl)oxy]-2-[4-(2,2,2-trifluoroethoxy)-1H-pyrazol-1-yl]benzonitrile]","corn plant response (injury) rating, 0-100 at 31 g/ha","[1]; Zea mays, post-emergence, Postemergence, 31 g ai/ha, scale 0 to 100",10%
same,"corn plant response (injury) rating, 0-100 at 62 g/ha","[1]; Zea mays, post-emergence, Postemergence, 62 g ai/ha, scale 0 to 100",10%
same,"corn plant response (injury) rating, 0-100 at 125 g/ha","[1]; Zea mays, post-emergence, Postemergence, 125 g ai/ha, scale 0 to 100",15%
same,"corn plant response (injury) rating, 0-100 at 8 g/ha","[1]; Zea mays, post-emergence, postemergence, 8 g ai/ha, scale 0 to 100, 0 no effect, 100 complete control",10%
same,"corn plant response (injury) rating, 0-100 at 16 g/ha","[1]; Zea mays, post-emergence, postemergence, 16 g ai/ha, scale 0 to 100, 0 no effect, 100 complete control",15%
same,pest or weed control at 31 g/ha,"[2]; Commelina virginica, post-emergence, Postemergence, 31 g ai/ha, scale 0 to 100, read-out: Plant response rating, Dayflower, VA",20%
same,pest or weed control at 62 g/ha,"[2]; Commelina virginica, post-emergence, Postemergence, 62 g ai/ha, scale 0 to 100, read-out: Plant response rating, Dayflower, VA",40%
same,pest or weed control at 125 g/ha,"[2]; Commelina virginica, post-emergence, Postemergence, 125 g ai/ha, scale 0 to 100, read-out: Plant response rating, Dayflower, VA",70%
same,pest or weed control at 8 g/ha,"[2]; Commelina virginica, post-emergence, postemergence, 8 g ai/ha, scale 0 to 100, 0 no effect, 100 complete control, read-out: Plant response rating, Dayflower, VA",5%
same,pest or weed control at 16 g/ha,"[2]; Commelina virginica, post-emergence, postemergence, 16 g ai/ha, scale 0 to 100, 0 no effect, 100 complete control, read-out: Plant response rating, Dayflower, VA",10%
same,"plant response (crop injury) rating, soybean, 0-100 scale at 31 g/ha","[5]; Glycine max, post-emergence, Postemergence, 31 g ai/ha, scale 0 to 100",75%
same,"plant response (crop injury) rating, soybean, 0-100 scale at 62 g/ha","[5]; Glycine max, post-emergence, Postemergence, 62 g ai/ha, scale 0 to 100",95%
same,"plant response (crop injury) rating, soybean, 0-100 scale at 125 g/ha","[5]; Glycine max, post-emergence, Postemergence, 125 g ai/ha, scale 0 to 100",95%
same,"plant response (crop injury) rating, soybean, 0-100 scale at 8 g/ha","[5]; Glycine max, post-emergence, postemergence, 8 g ai/ha, scale 0 to 100, 0 no effect, 100 complete control",20%
same,"plant response (crop injury) rating, soybean, 0-100 scale at 16 g/ha","[5]; Glycine max, post-emergence, postemergence, 16 g ai/ha, scale 0 to 100, 0 no effect, 100 complete control",35%
same,pest or weed control at 31 g/ha,"[6]; Lolium multiflorum, post-emergence, Postemergence, 31 g ai/ha, scale 0 to 100, read-out: Plant response rating, Ryegrass, Italian",10%
same,pest or weed control at 62 g/ha,"[6]; Lolium multiflorum, post-emergence, Postemergence, 62 g ai/ha, scale 0 to 100, read-out: Plant response rating, Ryegrass, Italian",10%
same,pest or weed control at 125 g/ha,"[6]; Lolium multiflorum, post-emergence, Postemergence, 125 g ai/ha, scale 0 to 100, read-out: Plant response rating, Ryegrass, Italian",40%
same,pest or weed control at 8 g/ha,"[6]; Lolium multiflorum, post-emergence, postemergence, 8 g ai/ha, scale 0 to 100, 0 no effect, 100 complete control, read-out: Plant response rating, Ryegrass, Italian",0%
same,pest or weed control at 16 g/ha,"[6]; Lolium multiflorum, post-emergence, postemergence, 16 g ai/ha, scale 0 to 100, 0 no effect, 100 complete control, read-out: Plant response rating, Ryegrass, Italian",5%
same,pest or weed control at 31 g/ha,"[7]; Digitaria horizontalis, post-emergence, Postemergence, 31 g ai/ha, scale 0 to 100, read-out: Plant response rating, Crabgrass, Brazil",25%
same,pest or weed control at 62 g/ha,"[7]; Digitaria horizontalis, post-emergence, Postemergence, 62 g ai/ha, scale 0 to 100, read-out: Plant response rating, Crabgrass, Brazil",35%
same,pest or weed control at 125 g/ha,"[7]; Digitaria horizontalis, post-emergence, Postemergence, 125 g ai/ha, scale 0 to 100, read-out: Plant response rating, Crabgrass, Brazil",50%
same,pest or weed control at 8 g/ha,"[7]; Digitaria horizontalis, post-emergence, postemergence, 8 g ai/ha, scale 0 to 100, 0 no effect, 100 complete control, read-out: Plant response rating, Crabgrass, Brazil",10%
same,pest or weed control at 16 g/ha,"[7]; Digitaria horizontalis, post-emergence, postemergence, 16 g ai/ha, scale 0 to 100, 0 no effect, 100 complete control, read-out: Plant response rating, Crabgrass, Brazil",20%
